Results as given in patent US12344597B2, “Alkoxy-substituted pyridinyl derivatives as LPA1 receptor antagonists and their use in the treatment of fibrosis” (IDORSIA PHARMACEUTICALS LTD, priority 2018, dated 2025).

Each compound was assayed against human LPA1 receptor (Homo sapiens (Human), UniProt Q92633) (assay: Beta-arrestin recruitment assay to determine IC50 values for human LPAR1). Conditions: antagonist mode, Tango EDG2-bla U2OS cells, LPA 18:1 500 nM final.
Format: cell-based
Summary of the method: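 Antagonist IC50 = concentration giving 50% inhibition of maximal LPA response. Read-out is beta-lactamase reporter activity after arrestin-protease recruitment in U2OS cells bearing LPA1-TEV-Gal4-VP16 construct; cells pre-incubated 20 h, 37 °C, 5% CO2.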

Chain of human LPA1 receptor (Q92633 whole entry): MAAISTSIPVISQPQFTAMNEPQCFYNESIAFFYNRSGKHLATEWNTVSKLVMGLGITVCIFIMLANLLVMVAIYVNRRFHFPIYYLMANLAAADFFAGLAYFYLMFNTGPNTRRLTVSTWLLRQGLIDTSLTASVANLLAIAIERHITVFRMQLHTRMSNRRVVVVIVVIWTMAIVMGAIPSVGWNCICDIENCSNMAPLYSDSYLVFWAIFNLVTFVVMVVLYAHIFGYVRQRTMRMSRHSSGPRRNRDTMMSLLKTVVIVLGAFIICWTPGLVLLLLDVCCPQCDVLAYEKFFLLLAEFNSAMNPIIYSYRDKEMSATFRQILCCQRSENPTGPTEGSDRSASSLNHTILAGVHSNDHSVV

Row | Compound | IC50 [nM]
1 | CNC(C)(C)CN1CC(C(=O)Nc2ccc(C)nc2OC(F)F)(c2ccccc2C(C)C)C1 [Ex 11-64, N-(2-(difluoromethoxy)-6-methylpyridin-3-yl)-3-(2-isopropylphenyl)-1-(2-methyl-2-(methylamino)propyl)azetidine-3-carboxamide] | 63
2 | Cc1ccc(NC(=O)C2(c3ccccc3C(C)C)CN(CC#N)C2)c(OC(F)F)n1 [Ex 11-88, 1-(cyanomethyl)-N-(2-(difluoromethoxy)-6-methylpyridin-3-yl)-3-(2-isopropylphenyl)azetidine-3-carboxamide] | 6
3 | Cc1ccc(NC(=O)C2(c3ccccc3C(C)C)CN(C3COC3)C2)c(OC(F)F)n1 [Ex 11-20, N-(2-(difluoromethoxy)-6-methylpyridin-3-yl)-3-(2-isopropylphenyl)-1-(oxetan-3-yl)azetidine-3-carboxamide] | 6
4 | COCCN(CC(=O)OC)CC(=O)N1CC(C(=O)Nc2ccc(C)nc2OC(F)F)(c2ccccc2C(C)C)C1 [Ex 54, methyl N-(2-(3-((2-(difluoromethoxy)-6-methylpyridin-3-yl)carbamoyl)-3-(2-isopropylphenyl)azetidin-1-yl)-2-oxoethyl)-N-(2-methoxyethyl)glycinate] | 69
5 | Cc1ccc(NC(=O)C2(c3ccccc3C(C)C)CN(C(=O)CCC(=O)NS(C)(=O)=O)C2)c(OC(F)F)n1 [Ex 12-119, N-(2-(difluoromethoxy)-6-methylpyridin-3-yl)-3-(2-isopropylphenyl)-1-(4-(methylsulfonamido)-4-oxobutanoyl)azetidine-3-carboxamide] | 35
6 | COC(=O)c1ccc(N2CC(C(=O)Nc3ccc(C)nc3OC(F)F)(c3ccccc3C(C)C)C2)nc1 [Ex 18-1, Methyl 6-(3-((2-(difluoromethoxy)-6-methylpyridin-3-yl)carbamoyl)-3-(2-isopropylphenyl)azetidin-1-yl)nicotinate] | 16
7 | 1-((3-((3-(difluoromethoxy)-5-methylpyridin-2-yl)carbamoyl)-3-(2-isopropylphenyl)azetidine-1-carbonyl)oxy)cyclopropane-1-carboxylic acid [Ex 83-3] | 76
8 | Cc1ccc(C(C)C)c(C2(C(=O)Nc3ccc(C)nc3OC(F)F)CN(C(=O)CC(C)(C)C(=O)O)C2)c1 [Ex 39-2, 4-(3-((2-(difluoromethoxy)-6-methylpyridin-3-yl)carbamoyl)-3-(2-isopropyl-5-methylphenyl)azetidin-1-yl)-2,2-dimethyl-4-oxobutanoic acid] | 15
9 | COc1nc(C)ccc1NC(=O)C1(c2ccccc2C(C)C)CN(C(=O)CCC(=O)O)C1 [Ex 12-62, 4-(3-(2-isopropylphenyl)-3-((2-methoxy-6-methylpyridin-3-yl)carbamoyl)azetidin-1-yl)-4-oxobutanoic acid] | 65
10 | Cc1cnc(NC(=O)C2(c3ccccc3C(C)C)CN(C(=O)OCC(=O)O)C2)c(OC(F)F)c1 [Ex 83-2, 2-((3-((3-(difluoromethoxy)-5-methylpyridin-2-yl)carbamoyl)-3-(2-isopropylphenyl)azetidine-1-carbonyl)oxy)acetic acid] | 88
11 | Cc1ccc(NC(=O)C2(c3ccccc3C(C)C)CN(C(=O)CN3CC(O)C3)C2)c(OC(F)F)n1 [Ex 12-53, N-(2-(difluoromethoxy)-6-methylpyridin-3-yl)-1-(2-(3-hydroxyazetidin-1-yl)acetyl)-3-(2-isopropylphenyl)azetidine-3-carboxamide] | 17
12 | CC(C)c1ccccc1C1(C(=O)Nc2cccnc2OC(F)F)CN(c2nc(C(=O)O)co2)C1 [Ex 18-30, 2-(3-((2-(difluoromethoxy)pyridin-3-yl)carbamoyl)-3-(2-isopropylphenyl)azetidin-1-yl)oxazole-4-carboxylic acid] | 41
13 | Cc1ccc(NC(=O)C2(c3ccccc3C(C)C)CN(c3cc(C(=O)O)ncn3)C2)c(OC(F)F)n1 [Ex 18-13, 6-(3-((2-(difluoromethoxy)-6-methylpyridin-3-yl)carbamoyl)-3-(2-isopropylphenyl)azetidin-1-yl)pyrimidine-4-carboxylic acid] | 17
14 | CCOC(=O)CNS(=O)(=O)N1CC(C(=O)Nc2ccc(C)nc2OC(F)F)(c2ccccc2C(C)C)C1 [Ex 15-1, Ethyl ((3-((2-(difluoromethoxy)-6-methylpyridin-3-yl)carbamoyl)-3-(2-isopropylphenyl)azetidin-1-yl)sulfonyl)glycinate] | 5
15 | COc1ncccc1NC(=O)C1(c2ccccc2)CNC1 [Ex 85, N-(2-methoxypyridin-3-yl)-3-phenylazetidine-3-carboxamide, reference compound] | > 10000
16 | Cc1ccc(NC(=O)C2(c3ccccc3C(C)C)CN(C(=O)N[C@H](C)C(=O)O)C2)c(OC(F)F)n1 [Ex 17-24, (3-((2-(difluoromethoxy)-6-methylpyridin-3-yl)carbamoyl)-3-(2-isopropylphenyl)azetidine-1-carbonyl)-D-alanine] | 86

Row | Compound | IC50 [nM]
17 | Cc1ccc(NC(=O)C2(c3ccccc3C(C)C)CN(C(=O)CNCCC(=O)O)C2)c(OC(F)F)n1 [Ex 44, 3-((2-(3-((2-(difluoromethoxy)-6-methylpyridin-3-yl)carbamoyl)-3-(2-isopropylphenyl)azetidin-1-yl)-2-oxoethyl)amino)propanoic acid] | 155
18 | Cc1ccc(NC(=O)C2(c3ccccc3C(C)C)CN(C(=O)C[C@@H](O)CC(=O)O)C2)c(OC(F)F)n1 [Ex 12-105, (R)-5-(3-((2-(difluoromethoxy)-6-methylpyridin-3-yl)carbamoyl)-3-(2-isopropylphenyl)azetidin-1-yl)-3-hydroxy-5-oxopentanoic acid] | 54
19 | COc1ccc(C(C)C)c(C2(C(=O)Nc3ccc(C)nc3OC(F)F)CN(C(=O)CC(C)(C)C(=O)O)C2)c1 [Ex 39-6, 4-(3-((2-(difluoromethoxy)-6-methylpyridin-3-yl)carbamoyl)-3-(2-isopropyl-5-methoxyphenyl)azetidin-1-yl)-2,2-dimethyl-4-oxobutanoic acid] | 56
20 | Cc1ccc(NC(=O)C2(c3ccccc3C(C)C)CN(C(=O)[C@H](C)NC(=O)OC(C)(C)C)C2)c(OC(F)F)n1 [Ex 12-32, tert-butyl (S)-(1-(3-((2-(difluoromethoxy)-6-methylpyridin-3-yl)carbamoyl)-3-(2-isopropylphenyl)azetidin-1-yl)-1-oxopropan-2-yl)carbamate] | 1720
21 | Cc1ccc(NC(=O)C2(c3ccccc3C(C)C)CN(C(=O)CC3CCN(C)CC3)C2)c(OC(F)F)n1 [Ex 12-31, N-(2-(difluoromethoxy)-6-methylpyridin-3-yl)-3-(2-isopropylphenyl)-1-(2-(1-methylpiperidin-4-yl)acetyl)azetidine-3-carboxamide] | 337
22 | CC(=O)NS(=O)(=O)CC(=O)N1CC(C(=O)Nc2ccc(C)nc2OC(F)F)(c2ccccc2C(C)C)C1 [Ex 16-3, 1-(2-(N-acetylsulfamoyl)acetyl)-N-(2-(difluoromethoxy)-6-methylpyridin-3-yl)-3-(2-isopropylphenyl)azetidine-3-carboxamide] | 83
23 | Cc1ccc(NC(=O)C2(c3ccccc3C(C)C)CN(C(=O)CC3(N)COC3)C2)c(OC(F)F)n1 [Ex 12-38, 1-(2-(3-aminooxetan-3-yl)acetyl)-N-(2-(difluoromethoxy)-6-methylpyridin-3-yl)-3-(2-isopropylphenyl)azetidine-3-carboxamide] | 25
24 | Cc1ccc(NC(=O)C2(c3ccccc3C(C)C)CN(C(=O)CC3NCCNC3=O)C2)c(OC(F)F)n1 (centres unmarked) [Ex 12-46, N-(2-(difluoromethoxy)-6-methylpyridin-3-yl)-3-(2-isopropylphenyl)-1-(2-(3-oxopiperazin-2-yl)acetyl)azetidine-3-carboxamide] | 556
25 | Cc1ccc(NC(=O)C2(c3ccccc3C(C)C)CCN(C(=O)OCC(=O)O)CC2)c(OC(F)F)n1 [Ex 14-2, 2-((4-((2-(difluoromethoxy)-6-methylpyridin-3-yl)carbamoyl)-4-(2-isopropylphenyl)piperidine-1-carbonyl)oxy)acetic acid] | 4.3
26 | CC(=O)N(CC(=O)N1CC(C(=O)Nc2ccc(C)nc2OC(F)F)(c2ccccc2C(C)C)C1)OCc1ccccc1 [Ex 12-135, 1-(N-acetyl-N-(benzyloxy)glycyl)-N-(2-(difluoromethoxy)-6-methylpyridin-3-yl)-3-(2-isopropylphenyl)azetidine-3-carboxamide] | 8
27 | Cc1ccc(NC(=O)C2(c3ccccc3C(C)C)CCN(C(=O)CNCCO)CC2)c(OC(F)F)n1 [Ex 12-50, N-(2-(difluoromethoxy)-6-methylpyridin-3-yl)-1-((2-hydroxyethyl)glycyl)-4-(2-isopropylphenyl)piperidine-4-carboxamide] | 9
28 | CC(C)c1ccccc1C1(C(=O)Nc2cccnc2OC(F)F)CN(c2ncncc2F)C1 [Ex 18-21, N-(2-(difluoromethoxy)pyridin-3-yl)-1-(5-fluoropyrimidin-4-yl)-3-(2-isopropylphenyl)azetidine-3-carboxamide] | 10
29 | Cc1ccc(NC(=O)C2(c3ccccc3C(C)C)CN(S(N)(=O)=O)C2)c(OC(C)C)n1 [Ex 15-18, N-(2-isopropoxy-6-methylpyridin-3-yl)-3-(2-isopropylphenyl)-1-sulfamoylazetidine-3-carboxamide] | 7
30 | Cc1ccc(NC(=O)C2(c3ccccc3C(C)C)CN(C(=O)CN(C)S(N)(=O)=O)C2)c(OC(F)F)n1 [Ex 12-8, N-(2-(difluoromethoxy)-6-methylpyridin-3-yl)-3-(2-isopropylphenyl)-1-(N-methyl-N-sulfamoylglycyl)azetidine-3-carboxamide] | 10
31 | Cc1ccc(NC(=O)C2(c3ccccc3C(C)C)CCN(C(=O)Cn3cnnn3)CC2)c(OC(F)F)n1 [Ex 12-20, 1-(2-(1H-tetrazol-1-yl)acetyl)-N-(2-(difluoromethoxy)-6-methylpyridin-3-yl)-4-(2-isopropylphenyl)piperidine-4-carboxamide] | 2
32 | Cc1ccc(NC(=O)C2(c3ccccc3C(C)C)CN(CCCC(C)(C)C#N)C2)c(OC(F)F)n1 [Ex 11-60, 1-(4-cyano-4-methylpentyl)-N-(2-(difluoromethoxy)-6-methylpyridin-3-yl)-3-(2-isopropylphenyl)azetidine-3-carboxamide] | 47
